In ChEMBL document CHEMBL1938312, “Design and combinatorial synthesis of a novel kinase-focused library using click chemistry-based fragment assembly” (Bioorg Med Chem Lett, 2012) one finds IC50 data, which are given here for 15 molecules.

Experiment [1] has as its target T1, Receptor-type tyrosine-protein kinase FLT3 (Homo sapiens, UniProt P36888).
T1 sequence (P36888 whole entry): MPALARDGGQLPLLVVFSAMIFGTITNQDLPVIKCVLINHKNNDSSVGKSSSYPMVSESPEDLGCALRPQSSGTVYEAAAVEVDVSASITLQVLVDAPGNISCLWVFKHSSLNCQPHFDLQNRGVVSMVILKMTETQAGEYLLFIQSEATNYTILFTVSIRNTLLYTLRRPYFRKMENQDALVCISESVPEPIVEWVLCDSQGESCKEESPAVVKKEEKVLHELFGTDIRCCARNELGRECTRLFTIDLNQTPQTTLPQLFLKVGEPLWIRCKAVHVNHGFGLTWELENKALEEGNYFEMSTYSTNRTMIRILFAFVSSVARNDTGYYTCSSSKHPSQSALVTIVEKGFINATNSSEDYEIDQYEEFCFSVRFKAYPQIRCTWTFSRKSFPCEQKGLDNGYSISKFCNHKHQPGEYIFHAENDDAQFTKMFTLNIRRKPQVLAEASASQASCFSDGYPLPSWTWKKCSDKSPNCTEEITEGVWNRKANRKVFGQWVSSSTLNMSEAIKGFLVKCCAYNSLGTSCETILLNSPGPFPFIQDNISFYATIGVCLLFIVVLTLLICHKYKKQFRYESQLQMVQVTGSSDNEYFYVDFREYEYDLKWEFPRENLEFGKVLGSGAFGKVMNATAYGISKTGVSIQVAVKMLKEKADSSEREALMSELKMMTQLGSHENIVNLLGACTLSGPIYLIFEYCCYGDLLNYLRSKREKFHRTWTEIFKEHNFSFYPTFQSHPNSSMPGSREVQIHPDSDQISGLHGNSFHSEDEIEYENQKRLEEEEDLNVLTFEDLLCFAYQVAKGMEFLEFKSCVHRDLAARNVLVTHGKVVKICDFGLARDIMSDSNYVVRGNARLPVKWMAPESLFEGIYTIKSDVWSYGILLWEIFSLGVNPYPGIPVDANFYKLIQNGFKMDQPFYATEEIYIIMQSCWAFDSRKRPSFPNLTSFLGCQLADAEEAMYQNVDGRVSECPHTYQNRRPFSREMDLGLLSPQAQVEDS
The experiment is described as follows: Inhibition of FLT3 by colorimetric analysis.

Experiment [2] concerns the target Glycogen synthase kinase-3 beta (Homo sapiens, UniProt P49841). The experiment is described as follows: Inhibition of GSK3-beta by colorimetric analysis.

Molecules are shown by their SMILES. pIC50: −log10 of the molar value.

Chain of Glycogen synthase kinase-3 beta (P49841 whole entry): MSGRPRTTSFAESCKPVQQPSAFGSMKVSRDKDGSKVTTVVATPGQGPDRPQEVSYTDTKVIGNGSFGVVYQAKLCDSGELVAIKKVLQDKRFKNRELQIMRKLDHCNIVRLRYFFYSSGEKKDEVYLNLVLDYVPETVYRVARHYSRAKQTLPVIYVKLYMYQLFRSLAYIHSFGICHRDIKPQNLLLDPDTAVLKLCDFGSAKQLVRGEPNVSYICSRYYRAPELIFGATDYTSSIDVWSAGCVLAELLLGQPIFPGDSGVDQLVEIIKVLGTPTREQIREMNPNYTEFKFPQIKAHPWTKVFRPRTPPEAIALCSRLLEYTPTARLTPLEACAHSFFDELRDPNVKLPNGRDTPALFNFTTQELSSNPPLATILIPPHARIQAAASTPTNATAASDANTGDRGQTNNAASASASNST

For the molecule `Clc1ccc(-n2cc(-c3ccccn3)nn2)cc1`, in experiment [1], the pIC50 (usually −log10 of the IC50, conventionally taken in molar units) was 5.20.

As for `Cc1ccccc1-n1cc(-c2ccccn2)nn1`, the values for the pIC50 in experiment [1] and in experiment [2] were 5.03 and 6.31, respectively.

Regarding `c1ccc(Cn2cc(-c3ccc4nccnc4c3)nn2)cc1`, the pIC50 in experiment [1] is 5.20; in experiment [2], 5.02.

With `c1cc(-c2cnnn2C2C3CC4CC(C3)CC2C4)ccn1` (stereo unspecified), the pIC50 is 5.32 in experiment [1] and 5.59 in experiment [2].

In experiment [1], `Fc1ccc(-n2cc(-c3ccccn3)nn2)cc1` had a pIC50 of 5.17.

On to `c1cnc2cc(-c3cn(CCN4CCOCC4)nn3)ccc2n1`, for which the pIC50 in experiment [1] is 4.96.

Molecule `Cc1ccc(-n2nncc2-c2ccncc2)cc1` gave a pIC50 in experiment [1] of 5.64.

In experiment [1], `Cc1ccc(-n2cc(-c3ccncc3)nn2)cc1` showed a pIC50 of 5.18.

Regarding `Cc1ccccc1-n1nncc1-c1ccncc1`, the pIC50 is 5.21 in experiment [1] and 5.20 in experiment [2].

Consider `c1ccc(-c2cnnn2C2C3CC4CC(C3)CC2C4)nc1` (stereo unspecified), for which the pIC50 in experiment [1] was 4.99.

As to `c1cnc2cc(-c3cn(C4C5CC6CC(C5)CC4C6)nn3)ccc2n1` (stereo unspecified), in experiment [1], the pIC50 was 5.01.

As to `Fc1ccc(-n2nncc2-c2ccncc2)cc1`, the pIC50 in experiment [1] is 5.85.

Take `Fc1ccc(-n2cc(-c3ccc4nccnc4c3)nn2)cc1`: in experiment [1], the negative logarithm of the IC50 (pIC50) is 4.91.

With `Cc1ccc(-n2cc(-c3ccccn3)nn2)cc1`, the negative-log IC50 (pIC50) in experiment [1] is 5.96; in experiment [2] it was less than 4.52.

Regarding `c1cnc2cc(-c3cnnn3C3C4CC5CC(C4)CC3C5)ccc2n1` (stereo unspecified), the values for the pIC50 in experiment [1] and in experiment [2] were 5.51 and 5.55, respectively.
